# According to patent US8158021B2, “Polymerizable liquid crystal compound, polymerizable liquid crystal composition, liquid crystalline polymer, and optical anisotropic article” (Zeon Corporation, priority 2007, dated 2012):
# Legend:
# [1] = Measurement of phase transition temperature (liquid crystallinity temperature range); format: physicochemical
# Experimental: The substrates were heated from 30° C. to 250° C. on a hot plate, and then cooled to 30° C. A change in structure during a change in temperature was observed using a polarization optical microscope (“ECLIPSE LV100POL” manufactured by Nikon Corporation) to measure the phase transition temperature.
# In Table 1, “C” indicates “Crystal”, “N” indicates “Nematic”, and “I” indicates “Isotropic”.
# [2] = Formation of cholesteric phase in cured liquid crystalline polymer film; format: physicochemical; set-up: key: A case where a cholesteric phase was formed is indicated by “Formed”; a case where a cholesteric phase was not formed is indicated by “Not formed”; details: composition with polymerizable chiral compound; cured film 4 μm; transmission spectrum
# Experimental: The polymerizable liquid crystal composition solution was applied to a glass substrate provided with a rubbed polyimide alignment film using a bar coater (“SA-203” manufactured by Tester Sangyo Co., Ltd., Rod No. 8, shaft diameter: 12.7 mm). After drying the resulting film on a hot plate at 100° C. for three minutes, ultraviolet rays (1000 mJ/cm^2) were applied to the film from a mercury lamp to obtain a cured liquid crystalline polymer film having a thickness of 4 μm.
# The transmission spectrum of the cured film was measured using a spectrophotometer (“MCPD-3000” manufactured by Otsuka Electronics Co., Ltd.). A selective reflection region (i.e., a region in which the transmittance was about 50%) was observed when a cholesteric phase was formed. The bandwidth was about 50 to 100 nm. A case where a cholesteric phase was formed is indicated by “Formed”, and a case where a cholesteric phase was not formed is indicated by “Not formed”.
# [3] = Measurement of optical anisotropy (value Δn) of cured polymer film; format: physicochemical; details: cured polymer film 1.5 μm; retardation at 545.3 nm; Δn=Re/d
# Experimental: 2.7 parts of a photoinitiator (“Irgacure 907” manufactured by Ciba Specialty Chemicals Co., Ltd.) was then homogenously dissolved in the solution. The resulting solution was applied to a glass substrate provided with a rubbed polyimide alignment film using a bar coater (“SA-203” manufactured by Tester Sangyo Co., Ltd., Rod No. 4, shaft diameter: 12.7 mm). After drying the resulting film on a hot plate at 100° C. for two minutes, ultraviolet rays (700 mJ/cm^2) were applied to the film from a mercury lamp to obtain a cured polymer film having a thickness of 1.5 μm.
# The retardation (Re) of the cured film at a wavelength of 545.3 nm was measured using an ellipsometer (“XLS-100” manufactured by J. A. Woollam). The thickness (d) of the liquid crystal layer was also measured, and the value Δn was calculated by “Δn=Re/d”.
# [4] = Solubility in cyclopentanone; details: in cyclopentanone at 60° C., compound concentration 40 wt %
# Experimental: The solubility of the compound at 60° C. was evaluated when preparing the solution having a compound concentration of 40 wt %.
# [5] = Mutual solubility when forming the cured film; details: at 23° C., naked eye observation of turbidity
# Experimental: When forming the cured film of the compound, the mutual solubility of the compound at 23° C. was evaluated by naked eye observation. A case where turbidity was not observed is indicated by “Good”, and a case where turbidity was observed is indicated by “Bad”.
# [6] = heated from 30° C. to 250° C., then cooled to 30° C., polarization optical microscope
SMILES,"Liquid crystallinity temperature range [1, 6]",Cholesteric phase [2],Δn [3],Solubility [4],Mutual solubility [5],Liquid crystallinity temperature range ([1]; summary of Table 1)
C=CC(=O)OCCCCCCOc1ccc(C(=O)Oc2ccc(C=NN=Cc3ccc(OC(=O)c4ccc(OCCCCCCOC(=O)C=C)cc4)c(C(=O)OCCOC(=O)C=C)c3)cc2)cc1 [Polymerizable liquid crystal compound 7],125 °C or more,Formed,0.187,–,–,–
C=CC(=O)OCCCCCCOc1ccc(C(=O)Oc2ccc(C=NN=Cc3cc(OC)c(OC(=O)c4ccc(OCCCCCCOC(=O)C=C)cc4)c(OC)c3)cc2)cc1 [Polymerizable liquid crystal compound 5],155 °C or more,Formed,0.116,–,–,–
C=CC(=O)OCCCCCCOc1ccc(C(=O)Oc2ccc(C=NN=Cc3ccc(OC(=O)c4ccc(OCCCCCCOC(=O)C=C)cc4)c(OCC)c3)cc2)cc1 [Polymerizable liquid crystal compound 4],175 °C or more,Formed,0.199,–,–,–
C=CC(=O)OCCCCOc1ccc(C(=O)Oc2ccc(C=NN=Cc3ccc(OC(=O)c4ccc(OCCCCOC(=O)C=C)cc4)c(OCC)c3)cc2)cc1 [Polymerizable liquid crystal compound 6],170 °C or more,Formed,0.202,–,–,–
C=CC(=O)OCCCCCCOc1ccc(C(=O)Oc2ccc(C=NN=Cc3ccc(OC(=O)c4ccc(OCCCCCCOC(=O)C=C)cc4)c(C(=O)OCCOCCC)c3)cc2)cc1 [Polymerizable liquid crystal compound 3],190 °C or more,Formed,0.176,–,–,–

# Now from value to compound:
"Liquid crystallinity temperature range [1, 6]",Cholesteric phase [2],Δn [3],Solubility [4],Mutual solubility [5],Liquid crystallinity temperature range ([1]; summary of Table 1),SMILES
130 °C or more,Formed,0.191,–,–,–,C=CC(=O)OCCCCCCOc1ccc(C(=O)Oc2ccc(C=NN=Cc3ccc(OC(=O)c4ccc(OCCCCCCOC(=O)C=C)cc4)c(C(=O)OC)c3)cc2C(=O)OC)cc1 [Polymerizable liquid crystal compound 10]
63 °C,Formed,0.100,Good,Good,–,C=CC(=O)OCCCCOC(=O)Oc1ccc(C(=O)Oc2ccc(OC(=O)c3ccc(OC(=O)OCCCCOC(=O)C=C)cc3)c(C)c2)cc1 [compound 12]
–,–,–,–,–,narrow temperature range,"C=CC(=O)OCCCCOC(=O)Oc1ccc(C(=O)Oc2ccc(OC(=O)c3ccc(OC(=O)OCCCCOC(=O)C=C)cc3)c(C)c2)cc1 [Polymerizable liquid crystal compound 12, reference compound]"
150 °C or more,Formed,0.200,–,–,–,C=CC(=O)OCCCCCCOc1ccc(C(=O)Oc2ccc(C=NN=Cc3ccc(OC(=O)c4ccc(OCCCCCCOC(=O)C=C)cc4)c(OCC)c3)cc2OCC)cc1 [Polymerizable liquid crystal compound 8]
